We go through 24 molecules from PMC8138313, “Identification, Selection and Immune Assessment of Liver Stage CD8 T Cell Epitopes From Plasmodium falciparum” (Frontiers in Immunology, 2021).

Where a SMILES comes first, the peptide text is derived from it.

Some targets named below: HLA A*0101 (Homo sapiens, UniProt P04439, A114D/A174V/A182V/D101N/D185E/E176A/E190D/L180R/Q94H/R68K/S129P/T187R/V100A/V91M/W191G); HLA A*0301 (Homo sapiens, UniProt P04439); HLA A*0201 (Homo sapiens, UniProt P04439, D140Y/D185E/D98H/E176V/E277Q/G131W/G231S/I119V/I121R/I166T/I218V/L300P/L318F/N151K/N90K/P208A/P217A/Q86G/Q94H/R138H/R169H/T345S).
What all share (assay): HLA class I binding assay (cell-free competition, fluorescence polarization)

With `CC(C)C[C@H](NC(=O)[C@H](C)NC(=O)[C@H](CO)NC(=O)[C@@H](NC(=O)[C@H](CCCCN)NC(=O)[C@H](CC(=O)O)NC(=O)[C@H](CCCNC(=N)N)NC(=O)[C@@H](N)CS)[C@@H](C)O)C(=O)N[C@@H](Cc1ccc(O)cc1)C(=O)O` (H-CRDKTSALY-OH; N-terminus assumed), the IC50 (commonly the midpoint of a concentration-inhibition curve) at HLA A*0101 is above 1000 µM.

As for `CC(C)C[C@H](NC(=O)[C@H](CC(=O)O)NC(=O)[C@H](CC(=O)O)NC(=O)[C@H](CO)NC(=O)[C@@H](N)CC(=O)O)C(=O)N[C@@H](CCCCN)C(=O)N[C@@H](CCC(=O)O)C(=O)N[C@@H](CO)C(=O)N[C@@H](Cc1ccc(O)cc1)C(=O)O` (H-DSDDLKESY-OH), at HLA A*0101, the IC50 amounted to 2.6 µM.

For `CC(C)[C@H](NC(=O)[C@H](CCC(=O)O)NC(=O)[C@H](Cc1ccccc1)NC(=O)[C@@H](NC(=O)[C@@H](N)CC(=O)O)[C@@H](C)O)C(=O)N[C@@H](Cc1ccc(O)cc1)C(=O)N[C@@H](CO)C(=O)N[C@@H](CCC(=O)O)C(=O)N[C@@H](Cc1ccc(O)cc1)C(=O)O` (H-DTFEVYSEY-OH; N-terminus assumed), the IC50 on HLA A*0101 and at HLA A*0301 was above 1000 µM in each case.

With `CC[C@H](C)[C@H](NC(=O)[C@@H](N)Cc1ccccc1)C(=O)N[C@@H](CC(=O)O)C(=O)N1CCC[C@H]1C(=O)N[C@@H](CCC(N)=O)C(=O)N[C@H](C(=O)N[C@@H](CCC(=O)O)C(=O)N[C@@H](CCSC)C(=O)N[C@@H](Cc1ccccc1)C(=O)N[C@@H](CCCCN)C(=O)O)[C@@H](C)O` (H-FIDPQTEMFK-OH), the 50% inhibitory concentration (IC50) at HLA A*0101 was determined as 46.6 µM; on HLA A*0301, 8.1 µM.

`CC(C)C[C@H](NC(=O)[C@@H]1CCCN1C(=O)[C@H](Cc1ccccc1)NC(=O)[C@H](CC(N)=O)NC(=O)[C@H](Cc1ccccc1)NC(=O)[C@H](CC(N)=O)NC(=O)[C@H](CCC(=O)O)NC(=O)[C@H](CC(C)C)NC(=O)[C@@H](N)Cc1ccccc1)C(=O)O` (H-FLENFNFPL-OH): the IC50 at HLA A*0101 is above 1000 µM; at HLA A*0201, 3.68 µM.

Turning to `CC(C)[C@H](NC(=O)[C@H](CC(N)=O)NC(=O)[C@@H](NC(=O)[C@@H](N)Cc1ccccc1)[C@@H](C)O)C(=O)N[C@@H](CC(N)=O)C(=O)N[C@@H](CCC(N)=O)C(=O)N[C@@H](Cc1ccccc1)C(=O)N[C@@H](Cc1ccccc1)C(=O)N[C@@H](CCCCN)C(=O)O` (H-FTNVNQFFK-OH), the half-inhibitory concentration (IC50) at HLA A*0101 was above 1000 µM; at HLA A*0301, 0.921 µM.

Take `NCCCC[C@H](NC(=O)[C@H](CO)NC(=O)CN)C(=O)N[C@@H](CC(N)=O)C(=O)N[C@@H](CC(=O)O)C(=O)N[C@@H](Cc1ccccc1)C(=O)N[C@@H](CCC(N)=O)C(=O)N[C@@H](CCC(N)=O)C(=O)N[C@@H](CCC(N)=O)C(=O)N[C@@H](Cc1ccc(O)cc1)C(=O)O` (H-GSKNDFQQQY-OH; N-terminus assumed): the IC50 at HLA A*0101 is above 1000 µM.

At HLA A*0101, `CC(C)C[C@H](NC(=O)CNC(=O)[C@@H]1CCCN1C(=O)[C@H](Cc1ccccc1)NC(=O)[C@@H](NC(=O)[C@H](CO)NC(=O)[C@@H](NC(=O)[C@@H](N)Cc1c[nH]cn1)[C@@H](C)O)C(C)C)C(=O)N[C@@H](Cc1ccc(O)cc1)C(=O)O` (H-HTSVFPGLY-OH) returned an IC50 of 5.65 µM.

Regarding `CC[C@H](C)[C@H](N)C(=O)N[C@H](C(=O)N[C@@H](CC(N)=O)C(=O)N[C@@H](CCCCN)C(=O)N[C@@H](CC(N)=O)C(=O)N[C@@H](CCCCN)C(=O)N[C@H](C(=O)N[C@H](C(=O)N[C@H](C(=O)N[C@@H](Cc1ccc(O)cc1)C(=O)O)[C@@H](C)CC)[C@@H](C)O)C(C)C)[C@@H](C)O` (H-ITNKNKVTIY-OH), the IC50 on HLA A*0101 was above 1000 µM; at HLA A*0301, 8.72 µM.

Consider `CC(C)[C@H](NC(=O)[C@H](CCC(=O)O)NC(=O)[C@H](Cc1ccccc1)NC(=O)[C@@H](NC(=O)[C@H](CC(=O)O)NC(=O)[C@H](CC(=O)O)NC(=O)[C@H](CCC(=O)O)NC(=O)[C@@H](N)CCCCN)[C@@H](C)O)C(=O)N[C@@H](Cc1ccc(O)cc1)C(=O)O` (H-KEDDTFEVY-OH; N-terminus assumed), for which the IC50 at HLA A*0101 was above 1000 µM.

As to `CC(C)C[C@H](NC(=O)[C@H](CC(=O)O)NC(=O)[C@H](CC(C)C)NC(=O)[C@H](CO)NC(=O)[C@@H]1CCCN1C(=O)[C@H](CCCCN)NC(=O)[C@H](CC(N)=O)NC(=O)[C@H](CC(C)C)NC(=O)[C@H](CC(C)C)NC(=O)[C@@H](N)CCCCN)C(=O)O` (H-KLLNKPSLDL-OH), the IC50 is 4.26 µM on HLA A*0201 and 2.36 µM at HLA A*0301.

`CC[C@H](C)[C@H](NC(=O)[C@@H](N)CC(C)C)C(=O)N[C@@H](CO)C(=O)N[C@@H](CCCNC(=N)N)C(=O)N[C@@H](CC(C)C)C(=O)N[C@H](C(=O)N[C@@H](CC(C)C)C(=O)N[C@@H](CCCCN)C(=O)N[C@@H](Cc1ccc(O)cc1)C(=O)O)[C@@H](C)O` (H-LISRLTLKY-OH) showed an IC50 on HLA A*0101 of 11.5 µM.

`CC[C@H](C)[C@H](NC(=O)[C@H](CC(N)=O)NC(=O)[C@H](CCC(=O)O)NC(=O)[C@@H](NC(=O)[C@H](CC(N)=O)NC(=O)[C@H](CO)NC(=O)[C@H](CO)NC(=O)[C@@H](N)CC(C)C)[C@@H](C)CC)C(=O)N[C@@H](Cc1ccc(O)cc1)C(=O)O` (H-LSSNIENIY-OH): the IC50 at HLA A*0101 was found to be 29.6 µM.

With `CC(C)C[C@H](N)C(=O)N[C@H](C(=O)N[C@@H](Cc1c[nH]cn1)C(=O)N[C@@H](CCCCN)C(=O)N[C@@H](Cc1ccc(O)cc1)C(=O)N[C@@H](CC(N)=O)C(=O)N[C@@H](CCC(=O)O)C(=O)N[C@@H](Cc1ccccc1)C(=O)N[C@H](C(=O)O)C(C)C)[C@@H](C)O` (H-LTHKYNEFV-OH), the IC50 was 174 µM at HLA A*0101 and 2.41 µM at HLA A*0201.

The molecule `CSCC[C@H](NC(=O)[C@H](CC(N)=O)NC(=O)[C@H](CC(N)=O)NC(=O)[C@H](CCCNC(=N)N)NC(=O)[C@H](Cc1ccccc1)NC(=O)[C@H](CC(N)=O)NC(=O)[C@H](CC(N)=O)NC(=O)[C@@H](N)CC(N)=O)C(=O)N[C@@H](Cc1ccc(O)cc1)C(=O)O` (H-NNNFRNNMY-OH; N-terminus assumed) returned an IC50 at HLA A*0101 above 1000 µM.

On HLA A*0101, `CC[C@H](C)[C@H](NC(=O)[C@H](CC(C)C)NC(=O)[C@H](CC(=O)O)NC(=O)[C@H](CC(C)C)NC(=O)[C@H](CCCCN)NC(=O)[C@H](CC(=O)O)NC(=O)[C@H](CO)NC(=O)[C@@H](N)CC(N)=O)C(=O)N[C@@H](Cc1ccc(O)cc1)C(=O)O` (H-NSDKLDLIY-OH) displayed an IC50 of 0.875 µM.

`CC(C)[C@H](NC(=O)[C@H](CC(N)=O)NC(=O)[C@@H]1CCCN1C(=O)[C@H](CO)NC(=O)[C@@H](N)CC(N)=O)C(=O)N[C@@H](CC(N)=O)C(=O)N[C@@H](CCCCN)C(=O)N[C@@H](CCCNC(=N)N)C(=O)N[C@@H](Cc1ccc(O)cc1)C(=O)O` (H-NSPNVNKRY-OH; N-terminus assumed) returned an IC50 at HLA A*0101 above 1000 µM.

On to `CC(C)C[C@H](NC(=O)[C@H](C)NC(=O)[C@H](CC(=O)O)NC(=O)[C@H](Cc1ccccc1)NC(=O)[C@@H](NC(=O)[C@@H](N)CC(N)=O)[C@@H](C)O)C(=O)N[C@@H](Cc1ccc(O)cc1)C(=O)N[C@@H](Cc1ccc(O)cc1)C(=O)N[C@H](C(=O)O)C(C)C` (H-NTFDALYYV-OH), for which the 50% inhibitory concentration (IC50) on HLA A*0101 was above 1000 µM; on HLA A*0201, 8.76 µM.

`CC(C)[C@H](NC(=O)[C@@H](NC(=O)[C@@H](N)CC(N)=O)[C@@H](C)O)C(=O)N[C@@H](CCCCN)C(=O)N[C@@H](CS)C(=O)N1CCC[C@H]1C(=O)N[C@@H](CC(N)=O)C(=O)N[C@@H](CC(=O)O)C(=O)N[C@@H](Cc1ccc(O)cc1)C(=O)O` (H-NTVKCPNDY-OH) returned an IC50 on HLA A*0101 of 282 µM.

The molecule `C[C@H](NC(=O)[C@H](CO)NC(=O)[C@@H](N)CO)C(=O)N[C@@H](CC(N)=O)C(=O)N[C@@H](CC(=O)O)C(=O)N[C@@H](CCC(=O)O)C(=O)N[C@@H](CCC(N)=O)C(=O)N[C@@H](CO)C(=O)N[C@@H](Cc1ccc(O)cc1)C(=O)O` (H-SSANDEQSY-OH) had an IC50 on HLA A*0101 of 65 µM.

As for `CC[C@H](C)[C@H](NC(=O)[C@H](CC(=O)O)NC(=O)[C@@H](NC(=O)[C@@H](N)CO)[C@@H](C)O)C(=O)N[C@H](C(=O)N[C@@H](Cc1ccccc1)C(=O)N[C@@H](CC(C)C)C(=O)N[C@H](C(=O)N[C@@H](CCSC)C(=O)N[C@@H](CCCCN)C(=O)O)[C@@H](C)O)[C@@H](C)CC` (H-STDIIFLTMK-OH), the half-maximal inhibitory concentration (IC50) on HLA A*0101 is above 1000 µM; on HLA A*0301, 8.78 µM.

Consider `CSCC[C@H](NC(=O)[C@H](CC(N)=O)NC(=O)[C@H](CCC(N)=O)NC(=O)[C@H](CC(N)=O)NC(=O)[C@H](C)NC(=O)[C@H](CCSC)NC(=O)[C@@H](N)[C@@H](C)O)C(=O)N[C@@H](CC(N)=O)C(=O)N[C@@H](Cc1ccc(O)cc1)C(=O)O` (H-TMANQNMNY-OH), for which the IC50 at HLA A*0101 stood at 2.02 µM; on HLA A*0301, 0.943 µM.

In the case of `C[C@@H](O)[C@H](N)C(=O)N[C@@H](CO)C(=O)N[C@@H](CCCCN)C(=O)N[C@@H](CCC(N)=O)C(=O)NCC(=O)N[C@@H](CO)C(=O)N[C@@H](CO)C(=O)N[C@@H](CC(N)=O)C(=O)N[C@@H](CCCCN)C(=O)N[C@@H](Cc1ccc(O)cc1)C(=O)O` (H-TSKQGSSNKY-OH; N-terminus assumed), the half-inhibitory concentration (IC50) on HLA A*0101 was above 1000 µM.

For the molecule `CC(C)[C@H](NC(=O)[C@H](CO)NC(=O)[C@H](CCC(=O)O)NC(=O)[C@H](Cc1ccccc1)NC(=O)[C@H](Cc1ccccc1)NC(=O)[C@@H](NC(=O)[C@@H](N)[C@@H](C)O)[C@@H](C)O)C(=O)N[C@@H](CO)C(=O)N[C@@H](Cc1ccc(O)cc1)C(=O)O` (H-TTFFESVSY-OH), the results for the IC50 on HLA A*0101 and at HLA A*0301 were 338 µM and 658 µM, respectively.
